Test results published in patent US9133187B2, “Serine/threonine kinase inhibitors” (ARRAY BIOPHARMA INC., priority 2011, dated 2015).

What was measured:
[1] = test system: PMA-stimulated P90RSK(Ser380) phosphorylation in HepG2 cells; experiment: Cellular P90RSK(Ser380) Phosphorylation Assay; format: cell-based; conditions: Homo sapiens, 1.5 h compound incubation, PMA stimulation, pP90RSK(Ser380) normalized to GAPDH, read-out: Cell Assay IC50
Experimental: Inhibition of PMA-stimulated P90RSK(Ser380) phosphorylation was determined by the following in vitro cellular mechanistic assay, which comprises incubating cells with a compound for 1.5 hours and quantifying fluorescent pP90RSK(Ser380) signal on fixed cells and normalizing to GAPDH signal.
Materials and Methods: HepG2 cells were obtained from ATCC and grown in DMEM supplemented with 10% fetal bovine serum. Cells were plated in 96-well plates at 35,000 cells/well and allowed to attach overnight at 37° C./5% CO2. Diluted compounds were then added at a final concentration of 0.5% DMSO. After 1.5 hour compound incubation, cells were stimulated with the addition of PMA (phorbol 12-myristate 13-acetate) at a final concentration of 100 ng/mL; the PMA stimulation was a 30-minute incubation at 37° C./5% CO2. After the 30-minute PMA stimulation, cells were washed with PBS and fixed in 3.7% formaldehyde in PBS at room temperature for 15-20 minutes. This was followed by another wash in PBS and then permeabilization in 100% MeOH at room temperature for 10-15 minutes. Following the permeabilization incubation, cells were washed in PBS/0.05% Tween-20, followed by a block in Odyssey blocking buffer (LI-COR Biosciences) for at least 1 hour. Antibodies to phosphorylated P90RSK(Ser380) (Cell Signaling #9335, rabbit monoclonal) and GAPDH (Fitzgerald 10R-G109a, mouse monoclonal) were added to the cells and incubated overnight at 4° C. pP90RSK(Ser380) antibody was used at a 1:250 dilution; GAPDH was used at a 1:10,000 dilution. After washing with PBS/0.05% Tween-20, the cells were incubated with fluorescently-labeled secondary antibodies (Anti-rabbit-Alexa Flour680, Invitrogen Cat#A21109; Anti-mouse-IRDye800CW, Rockland Inc. Cat#610-131-121) for 1 hour. Both secondary antibodies were used at a 1:1000 dilution. Cells were then washed and analyzed for fluorescence at both wavelengths using the Odyssey Infrared Imaging System (LI-COR Biosciences). Phosphorylated P90RSK(Ser380) signal was normalized to GAPDH signal. Representative date is in TABLE III (infra).

[2] = target: human ERK-2 (Mitogen Activated Kinase 1) (Homo sapiens (Human), UniProt P28482); experiment: ERK-2 Enzymatic Assay; format: biochemical; conditions: 5 nM ERK-2, 25 μM ATP, Omnia peptide S/T17; read-out: ERK Inhibition IC50
Chain of human ERK-2 (Mitogen Activated Kinase 1) (P28482 8-360): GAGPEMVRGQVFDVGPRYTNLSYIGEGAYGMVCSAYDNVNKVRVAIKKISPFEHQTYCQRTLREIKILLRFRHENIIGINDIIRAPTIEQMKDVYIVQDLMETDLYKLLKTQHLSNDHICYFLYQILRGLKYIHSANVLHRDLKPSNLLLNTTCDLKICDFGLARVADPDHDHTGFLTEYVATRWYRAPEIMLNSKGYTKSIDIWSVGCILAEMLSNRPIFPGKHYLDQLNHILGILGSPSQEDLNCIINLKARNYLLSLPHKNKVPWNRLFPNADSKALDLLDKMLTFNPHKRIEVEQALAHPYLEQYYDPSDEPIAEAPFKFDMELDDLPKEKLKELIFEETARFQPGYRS
Experimental: Compounds were tested in an enzymatic assay using human ERK-2 (Mitogen Activated Kinase 1), recombinantly expressed as an n-terminal 6-His fusion protein in E. coli and corresponding to aa 8-360. The substrate used was the fluorescent Omnia peptide S/T17 (Invitrogen of Carlsbad, Calif.; Cat. KNZ1171C). Test compounds were diluted in DMSO in 3-fold serial dilutions at 100× final concentrations. […] The assay was run at ambient temperature in a white 384-well polypropylene plate (Nunc, Inc of Naperville, Ill.; Cat. 267462) collecting data every 50 seconds for approximately 30 minutes on an Envision plate reader (PerkinElmer, Inc. of Waltham, Mass.); Excitation 340 nm/Emission 495 nm. The data collected from each well was fit to a straight line and the resulting rates were used to calculate percent of control. Percent of control was plotted against compound concentration and IC50 values were determined using a four-parameter fit.

Row | IC50 [2] | SMILES | IC50 [1]
1 | 244 nM | CC(C)Nc1ncc2c(n1)CN(C(=O)CCc1ccc(Cl)cc1Cl)CC2 [II-24, 3-(2,4-Dichloro-phenyl)-1-(2-isopropylamino-5,8-dihydro-6H-pyrido[3,4-d]pyrimidin-7-yl)-propan-1-one] | 50000 nM
2 | 86.6 nM | CNC(=O)C(NC(=O)N1CCc2cnc(NC(C)C)nc2C1)c1ccc(F)c(Cl)c1 (stereo not shown) [II-26, 2-Isopropylamino-5,8-dihydro-6H-pyrido[3,4-d]pyrimidine-7-carboxylic acid [(3-chloro-4-fluoro-phenyl)-methylcarbamoyl-methyl]-amide] | 12200 nM
3 | 25.9 nM | Cc1noc(C)c1Nc1ncc2c(n1)CN(C(=O)N[C@H](CO)c1ccc(F)c(Cl)c1)CC2 [II-34, 2-(3,5-Dimethyl-isoxazol-4-ylamino)-5,8-dihydro-6H-pyrido[3,4-d]pyrimidine-7-carboxylic acid [(S)-1-(3-chloro-4-fluoro-phenyl)-2-hydroxy-ethyl]-amide] | 13200 nM
4 | 21.5 nM | CNC[C@@H](NC(=O)N1CCc2cnc(Nc3ccc(F)cc3)nc2C1)c1ccc(F)c(Cl)c1 [II-35, 2-(4-Fluoro-phenylamino)-5,8-dihydro-6H-pyrido[3,4-d]pyrimidine-7-carboxylic acid [(S)-1-(3-chloro-4-fluoro-phenyl)-2-methylamino-ethyl]-amide] | 160 nM
5 | 3.23 nM | CC(C)Nc1ncc2c(n1)CN(C(=O)N[C@@H](c1ccc(F)c(Cl)c1)[C@H](C)O)CC2 [II-40, 2-Isopropylamino-5,8-dihydro-6H-pyrido[3,4-d]pyrimidine-7-carboxylic acid [(1S,2S)-1-(3-chloro-4-fluoro-phenyl)-2-hydroxy-propyl]-amide] | 87.3 nM
6 | 15.4 nM | COCCNC[C@@H](NC(=O)N1CCc2cnc(NC(C)C)nc2C1)c1ccc(F)c(Cl)c1 [II-41, 2-Isopropylamino-5,8-dihydro-6H-pyrido[3,4-d]pyrimidine-7-carboxylic acid [(S)-1-(3-chloro-4-fluoro-phenyl)-2-(2-methoxy-ethylamino)-ethyl]-amide] | 1900 nM
7 | 7.1 nM | CC(C)Nc1ncc2c(n1)CN(C(=O)N[C@H](CNS(C)(=O)=O)c1ccc(F)c(Cl)c1)CC2 [II-43, 2-Isopropylamino-5,8-dihydro-6H-pyrido[3,4-d]pyrimidine-7-carboxylic acid [(S)-1-(3-chloro-4-fluoro-phenyl)-2-methanesulfonylamino-ethyl]-amide] | 917 nM
8 | 4.43 nM | CC(C)Nc1ncc2c(n1)CN(C(=O)N[C@H](CNc1ncccn1)c1ccc(F)c(Cl)c1)CC2 [II-50, 2-Isopropylamino-5,8-dihydro-6H-pyrido[3,4-d]pyrimidine-7-carboxylic acid [(S)-1-(3-chloro-4-fluoro-phenyl)-2-(pyrimidin-2-ylamino)-ethyl]-amide] | 1000 nM
9 | 2.4 nM | CC(C)Nc1ncc2c(n1)CN(C(=O)N[C@H](CNc1ccncn1)c1ccc(F)c(Cl)c1)CC2 [II-51, 2-Isopropylamino-5,8-dihydro-6H-pyrido[3,4-d]pyrimidine-7-carboxylic acid [(S)-1-(3-chloro-4-fluoro-phenyl)-2-(pyrimidin-4-ylamino)-ethyl]-amide] | 435 nM
10 | 210 nM | O=C(N[C@H](CO)c1ccc(F)c(Cl)c1)N1CCc2cnc(Nc3ccc(Cl)c(F)c3)nc2C1 [II-61, 2-(4-Chloro-3-fluoro-phenylamino)-5,8-dihydro-6H-pyrido[3,4-d]pyrimidine-7-carboxylic acid [(S)-1-(3-chloro-4-fluoro-phenyl)-2-hydroxy-ethyl]-amide] | 21300 nM
11 | 38.3 nM | O=C(NC1(c2ccc(Cl)cc2)CCNC1)N1CCc2cnc(Nc3ccc(F)cc3)nc2C1 (stereo not shown) [II-64, 2-(4-Fluoro-phenylamino)-5,8-dihydro-6H-pyrido[3,4-d]pyrimidine-7-carboxylic acid [3-(4-chloro-phenyl)-pyrrolidin-3-yl]-amide] | 3100 nM
